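Where inhibition never reached the appropriate level, the endpoint shown equals the highest concentration tested. Otherwise, values were interpolated linearly from a five-concentration, 48-hour dose response in 96-well plates. TGI marks complete inhibition of growth.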 Where a SMILES comes first, the peptide text is derived from it. The star is where a group is joined. Boc = CC(C)(C)OC(=O)*; OSu = O=C1CCC(=O)N1O*
Legend:
Assay in all cases: NCI tumour cell line growth inhibition, 48 h
MOLT-4 leukemia = test system: MOLT-4 leukemia
HOP-92 NSCLC = test system: HOP-92 NSCLC
NCI-H226 lung = test system: NCI-H226 lung
SF-295 CNS = test system: SF-295 CNS
786-0 renal = test system: 786-0 renal
SK-OV-3 ovarian = test system: SK-OV-3 ovarian
U251 CNS = test system: U251 CNS
OVCAR-4 ovarian = test system: OVCAR-4 ovarian
HOP-62 NSCLC = test system: HOP-62 NSCLC
HCT-15 colon = test system: HCT-15 colon
HS 578T breast = test system: HS 578T breast

Row | Structure (SMILES) | TGI (MOLT-4 leukemia) | TGI (HOP-92 NSCLC) | TGI (NCI-H226 lung) | TGI (SF-295 CNS) | TGI (786-0 renal) | TGI (SK-OV-3 ovarian) | TGI (U251 CNS) | TGI (OVCAR-4 ovarian) | TGI (HOP-62 NSCLC) | TGI (HCT-15 colon) | TGI (HS 578T breast)
1 | NC(CCCC(N)P(=O)(O)c1ccccc1)P(=O)(O)c1ccccc1 (stereo unspecified) | > 261 µM | > 261 µM | > 261 µM | > 261 µM | > 261 µM | > 261 µM | > 261 µM | > 261 µM | > 261 µM | > 261 µM | –
2 | CC(=O)N=C1N(/C=C2\C(=O)Oc3ccccc3C2=O)C(=O)/C(=C/c2ccc(OC(C)=O)cc2)N1C | > 100 µM | – | > 100 µM | > 100 µM | > 100 µM | > 100 µM | > 100 µM | > 100 µM | > 100 µM | > 100 µM | > 100 µM
3 | Cc1cnc2sn(-c3ccc(Oc4ccccc4)cc3)c(=O)c2c1 | > 100 µM | – | 47.6 µM | 39.3 µM | 30.7 µM | > 100 µM | 46 µM | 32.9 µM | 36.7 µM | 23.9 µM | 50.9 µM
4 | CC(=O)OCCOCn1c2c(c(=S)[nH]c1=O)CCC2 | > 100 µM | > 100 µM | > 100 µM | > 100 µM | > 100 µM | – | > 100 µM | > 100 µM | > 100 µM | > 100 µM | > 100 µM
5 | C[n+]1c(-c2ccc(/C=N/NC(=N)N/N=C/c3ccc(-c4cn5cc(Cl)ccc5[n+]4C)cc3)cc2)cn2cc(Cl)ccc21 | > 100 µM | – | – | > 100 µM | > 100 µM | > 100 µM | > 100 µM | > 100 µM | > 100 µM | > 100 µM | > 100 µM
6 | COc1cc(C2c3cc4c(cc3[C@@H](Nc3ccccc3)C3COC[C@H]23)OCO4)cc(OC)c1O (stereo partly specified) | – | – | – | 3.36 µM | 2.3 µM | > 100 µM | 16.1 µM | > 100 µM | > 100 µM | 12.9 µM | 12.4 µM
7 | [N-]=[N+]=C1N=CN=C1c1ncn[nH]1 | 37.1 µM | 45 µM | > 100 µM | > 100 µM | > 100 µM | > 100 µM | > 100 µM | > 100 µM | > 100 µM | > 100 µM | –
8 | CCc1cc(Cc2cc(Cl)c(NC(=O)C(=O)C3NC(=O)NC3=O)c(CC)c2)cc(Cl)c1NC(=O)C(=O)C1NC(=O)NC1=O (stereo unspecified) | > 100 µM | > 100 µM | > 100 µM | > 100 µM | > 100 µM | > 100 µM | 40.1 µM | > 100 µM | > 100 µM | 35.6 µM | –
9 | Clc1ccc(SC(/C=C/NNC2=NC(c3ccccc3)C(c3ccccc3)=NN2)c2ccccc2)cc1 (stereo unspecified) | 38.4 µM | 32.6 µM | 62.7 µM | 89.6 µM | > 100 µM | > 100 µM | > 100 µM | 68.2 µM | > 100 µM | > 100 µM | –
10 | CCCSc1ccc2[nH]c(N3C(=O)/C(=C/c4ccco4)N=C3c3ccccc3)cc2c1 | > 50 µM | > 50 µM | – | – | > 50 µM | – | – | – | > 50 µM | > 50 µM | –
11 | CC(NC(=O)C(NC(=O)OC(C)(C)C)C(C)C)C(=O)NCC(=O)ON1C(=O)CCC1=O (stereo not drawn) (Boc-Val-Ala-Gly-OSu; configuration not given here) | > 100 µM | > 100 µM | > 100 µM | > 100 µM | > 100 µM | > 100 µM | > 100 µM | – | > 100 µM | > 100 µM | –
12 | O=C(c1ccc(Cl)cc1)c1ccc(OCCCOc2ccc(C(=O)c3ccc(Cl)cc3)cc2)cc1 | > 100 µM | > 100 µM | > 100 µM | > 100 µM | > 100 µM | > 100 µM | > 100 µM | > 100 µM | > 100 µM | > 100 µM | –
13 | CCSc1sc(=Nc2ccc(N=c3sc(C)c(SC)s3)cc2)sc1-c1ccc(C)cc1 | > 100 µM | > 100 µM | – | > 100 µM | > 100 µM | > 100 µM | > 100 µM | > 100 µM | > 100 µM | > 100 µM | > 100 µM
14 | Cc1[nH]c2c(c1C)S(=O)(=O)c1cc3ccccc3nc1N2 | > 100 µM | > 100 µM | 66.5 µM | > 100 µM | 30.4 µM | > 100 µM | 23.8 µM | 32.4 µM | 39.8 µM | > 100 µM | –
15 | O=c1[nH]c(=O)n(C2OC(COP(=O)(O)OP(=O)(O)OC3OC(CO)C(O)C(O)C3O)C(O)C2O)cc1F (stereo unspecified) | > 100 µM | 9.62 µM | 2.72 µM | > 100 µM | 2.68 µM | > 87.5 µM | > 100 µM | 7.25 µM | 4.3 µM | 11.5 µM | –
16 | Cc1nc(Nc2ccc(Cl)cc2)sc1C(=O)NNc1ccc([N+](=O)[O-])cc1[N+](=O)[O-] | 46.7 µM | 41.4 µM | 32.6 µM | 38.5 µM | 29.8 µM | 52.3 µM | 29.5 µM | 35.3 µM | 25.2 µM | – | –
17 | CN(C)c1ccc(C(=C(c2ccc(N(C)C)cc2)c2ccc(N(C)C)cc2)c2ccc(N(C)C)cc2)cc1 | 41 µM | – | 36.9 µM | 27.8 µM | 23.7 µM | 41.8 µM | 28.1 µM | > 100 µM | > 100 µM | 32.7 µM | –
18 | O=C1Nc2ccccc2C12CCNC2Cc1ccccc1 (stereo unspecified) | > 100 µM | > 100 µM | – | > 100 µM | > 100 µM | > 100 µM | > 100 µM | > 100 µM | > 100 µM | > 100 µM | –
19 | BrCCCCCOc1ccc(-c2c3ccccc3c(-c3ccc(OCCCCCBr)cc3)c3ccccc23)cc1 | > 100 µM | – | > 100 µM | > 100 µM | > 100 µM | > 100 µM | > 100 µM | > 100 µM | > 100 µM | > 100 µM | > 100 µM
20 | CCOC(=O)c1cc(-c2cc(OC)c(OC)c([N+](=O)[O-])c2)c([N+](=O)[O-])n1C | > 10 µM | > 10 µM | > 10 µM | > 10 µM | > 10 µM | – | > 10 µM | > 10 µM | – | > 10 µM | > 10 µM
21 | CCCCC(C#N)(OP1(=O)OC(c2ccccc2)C(C)N1C)c1ccccc1 (stereo unspecified) | 35.9 µM | 25.8 µM | – | 32.3 µM | 31.8 µM | 43.7 µM | 31.4 µM | – | 38.7 µM | 54.8 µM | 39.3 µM

Source: PubChem BioAssay (NCI)
